Assay results taken from patent US9765075B2, “Substituted bridged urea analogs as sirtuin modulators” (GLAXOSMITHKLINE LLC, priority 2013, dated 2017).
Like-named read-outs stand apart in the source and are kept apart here.

Target: T1, SIRT1 (Homo sapiens, UniProt Q96EB6)
T1 sequence (Q96EB6 1-747): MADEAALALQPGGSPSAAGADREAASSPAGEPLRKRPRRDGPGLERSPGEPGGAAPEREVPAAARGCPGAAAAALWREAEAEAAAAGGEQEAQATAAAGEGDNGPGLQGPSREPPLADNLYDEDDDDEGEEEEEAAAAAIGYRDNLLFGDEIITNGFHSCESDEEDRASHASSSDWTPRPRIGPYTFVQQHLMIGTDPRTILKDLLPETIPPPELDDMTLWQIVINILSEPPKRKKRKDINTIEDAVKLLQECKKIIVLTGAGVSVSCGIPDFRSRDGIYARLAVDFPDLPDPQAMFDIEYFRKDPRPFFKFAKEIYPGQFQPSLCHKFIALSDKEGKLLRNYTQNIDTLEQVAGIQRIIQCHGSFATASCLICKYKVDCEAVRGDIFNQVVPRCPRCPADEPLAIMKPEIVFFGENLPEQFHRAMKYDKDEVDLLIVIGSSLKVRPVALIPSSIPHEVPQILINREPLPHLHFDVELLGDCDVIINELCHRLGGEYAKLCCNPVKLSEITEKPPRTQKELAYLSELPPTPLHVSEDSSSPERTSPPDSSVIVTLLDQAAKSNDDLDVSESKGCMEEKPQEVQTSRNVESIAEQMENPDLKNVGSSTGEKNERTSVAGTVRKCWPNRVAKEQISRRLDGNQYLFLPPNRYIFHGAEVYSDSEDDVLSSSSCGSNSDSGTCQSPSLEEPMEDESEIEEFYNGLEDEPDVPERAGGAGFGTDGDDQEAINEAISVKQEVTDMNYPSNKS
Test: Trp mass spectrometry assay (SIRT1 activation)
Assay type: biochemical
Conditions: for Emax: percent maximum fold activation of SIRT1, read-out: Tryp % Fold Act
Method in brief: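 N-His-tagged SIRT1 (10 nM), expressed in E. coli, was incubated with 0.5 μM Ac-RHKK(Ac)W-NH2 peptide and 120 μM NAD+ for 25 min at 25 °C in HEPES pH 7.5 with […]. The reaction was stopped with formic acid and O-acetyl-ADP-ribose or deacetylated peptide was quantified by mass spectrometry. Results are given as EC1.5 and percent maximal activation relative to DMSO control.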

[1] = concentration of test compound that results in 150% activation of SIRT1, Trp peptide substrate
[2] = Trp mass spectrometry assay, EC1.5 = concentration giving 150% activation of SIRT1
[3] = Trp mass spectrometry assay, EC1.5 = concentration of test compound that results in 150% activation of SIRT1

Tryp AVG EC1.5 (μM) [1] | Emax (Trp peptide substrate) | Tryp AVG EC1.5 (μM) [2] | Emax (Trp mass spectrometry assay) | Tryp AVG EC1.5 (μM) [3] | Structure (SMILES)
 |  | C (EC1.5>25 μM) | < 150% |  | O=C(Nc1cnccn1)N1c2nc(-c3cccc(Cl)c3)ccc2N2C[C@@H](O)[C@H]1C2 [Example 678]
 |  | A (EC1.5<1 μM) | ≥ 150% |  | O=C(Nc1cccc(-c2cccnc2)c1)N1c2nc(-c3cccc(C(F)(F)F)c3)ccc2N2CC[C@H]1C2 [Example 660]
 |  | A (EC1.5<1 μM) | ≥ 150% |  | CS(=O)(=O)c1cccc(-c2ccc3c(n2)N(C(=O)Nc2cncc(-c4cnco4)c2)[C@H]2CCN3C2)c1 [Example 724]
 |  | A (EC1.5<1 μM) | ≥ 150% |  | O=C(Nc1ccncc1)N1c2nc(-c3cccc(C(F)(F)F)c3)ccc2N2CCC[C@H]1C2 [Example 821]
 |  | A (EC1.5<1 μM) | ≥ 150% |  | O=C(NCc1ncc(-c2cccc(NC(=O)N3c4nc(-c5cccc(C(F)(F)F)c5)ccc4N4CC[C@H]3C4)c2)o1)OCc1ccccc1 [Example 706]
 |  | A (EC1.5<1 μM) | ≥ 150% |  | O=C(Nc1ccccn1)N1c2nc(-c3cncc(C(F)(F)F)c3)ccc2N2C[C@@H](O)[C@H]1C2 [Example 694]
 |  | A (EC1.5<1 μM) | ≥ 150% |  | CC(C)(C)OC(=O)NCC#Cc1ccc(NC(=O)N2c3nc(-c4cccc(C(F)(F)F)c4)ccc3N3CCC[C@H]2C3)cc1-c1cnco1 [Example 753]
 |  | A (EC1.5<1 μM) | ≥ 150% |  | CC(C)(C)OC(=O)NCCNC(=N)c1ccc(NC(=O)N2c3nc(-c4cccc(C(F)(F)F)c4)ccc3N3CCC[C@H]2C3)cc1 [Example 788]
 |  | A (EC1.5<1 μM) | ≥ 150% |  | N=C(N)NCc1ncc(-c2cccc(NC(=O)N3c4nc(-c5cccc(C(F)(F)F)c5)ccc4N4CC[C@H]3C4)c2)o1 [Example 776]
 |  | A (EC1.5<1 μM) | ≥ 150% |  | Cc1cc(-c2ccc3c(n2)N(C(=O)Nc2cncc(-c4cnco4)c2)[C@H]2CCN3C2)ccn1 [Example 748]
 |  | A (EC1.5<1 μM) | ≥ 150% |  | O=C(Nc1ccccn1)N1c2nc(-c3cccc(C(F)(F)F)c3)ccc2N2CC[C@@H]1C2 [Example 823]
 |  | A (EC1.5<1 μM) | ≥ 150% |  | [N-]=[N+]=NCc1cc(N=[N+]=[N-])cc(-c2ccc3c(n2)N(C(=O)Nc2ccc(F)cn2)[C@H]2CCN3C2)c1 [Example 806]
 |  | A (EC1.5<1 μM) | ≥ 150% |  | O=C(Nc1cnccn1)N1c2nc(-c3cccc(C(F)(F)F)c3)ccc2N2C[C@@H](O)[C@H]1C2 [Example 645]
 |  | B (EC1.5 1-25 μM) | ≥ 150% |  | O=C(Nc1cncc(-c2cnco2)c1)N1c2nc(-c3cncc(F)c3)ccc2N2CC[C@H]1C2 [Example 716]
 |  | B (EC1.5 1-25 μM) | ≥ 150% |  | COc1cc(NC(=O)N2c3nc(-c4cncc(C(F)(F)F)c4)ccc3N3C[C@@H](O)[C@H]2C3)nc(OC)n1 [Example 704]

Further lines, the compound ahead of its results:

Structure (SMILES) | Tryp AVG EC1.5 (μM) [1] | Emax (Trp peptide substrate) | Tryp AVG EC1.5 (μM) [2] | Emax (Trp mass spectrometry assay) | Tryp AVG EC1.5 (μM) [3]
O=C(Nc1cncc(F)c1)N1c2nc(-c3cccnc3)ccc2N2CCC[C@H]1C2 [Example 453] | B (EC1.5 1-25 μM) | ≥ 150% |  |  | 
CC(C)(C)OC(=O)N1CCC(c2cccc(NC(=O)N3c4nc(-c5cccc(C(F)(F)F)c5)ccc4N4CC[C@H]3C4)c2)C1 (stereo partly shown) [Example 592] | A (EC1.5<1 μM) | ≥ 150% |  |  | 
Cc1nc(NC(=O)N2c3nc(-c4cncc(C(F)(F)F)c4)ccc3N3CCC[C@H]2C3)sc1C [Example 427] | A (EC1.5<1 μM) | ≥ 150% |  |  | 
Cc1nc(NC(=O)N2c3nc(N4CCCC(C(F)(F)F)C4)ccc3N3CCC[C@@H]2C3)sc1C (stereo partly shown) [Example 313] | C (EC1.5>25 μM) | < 150% |  |  | 
CN(C)[C@H]1CCN(c2ccc3c(n2)N(C(=O)Nc2cnccn2)[C@H]2CCN3C2)C1 [Example 246] | B (EC1.5 1-25 μM) | ≥ 150% |  |  | 
O=C(Nc1ccccn1)N1c2nc(-c3cccc(C(F)(F)F)c3)ccc2N2CC[C@H]1C2 [816 (7)] |  |  | A (EC1.5<1 μM) | ≥ 150% | 
Cc1cncc(-c2ccc3c(n2)N(C(=O)Nc2ccccn2)[C@H]2CCCN3C2)c1 [Example 504] | A (EC1.5<1 μM) | ≥ 150% |  |  | 
O=C(Nc1cccc(-c2cnco2)c1)N1c2nc(-c3cccc(Cl)c3)ccc2N2CC[C@@H]1C2 [Example 235] | A (EC1.5<1 μM) | ≥ 150% |  |  | 
O=C(Nc1cccnc1)N1c2nc(-c3cncc(C(F)(F)F)c3)ccc2N2CC[C@H]1C2 [Example 556] | A (EC1.5<1 μM) | ≥ 150% |  |  | 
COc1cc(-c2cccc(Cl)c2)nc2c1N1CC[C@@H](C1)N2C(=O)Nc1cnccn1 [Example 396] | A (EC1.5<1 μM) | ≥ 150% |  |  | 
O=C(Nc1cnccn1)N1c2nc(-c3cccc(N4CC[C@H](F)C4)c3)ccc2N2CC[C@H]1C2 [Example 268] | A (EC1.5<1 μM) | ≥ 150% |  |  | 
Cc1cncc(NC(=O)N2c3nc(N4CCCC(C(F)(F)F)C4)ccc3N3CC[C@H]2C3)c1 (stereo partly shown) [Example 230] | A (EC1.5<1 μM) | ≥ 150% |  |  | 
O=C(Nc1cncc(F)c1)N1c2nc(-c3cncc(F)c3)ccc2N2CCC1CC2 [Example 571] | B (EC1.5 1-25 μM) | ≥ 150% |  |  | 
Cc1nc(NC(=O)N2c3nc(-c4cccc(C(F)(F)F)c4)ccc3N3CCC[C@H]2C3)sc1C [Example 33] |  |  |  | ≥ 150% | 
O=C(Nc1cncc(F)c1)N1c2nc(-c3cccc(C(F)(F)F)c3)ccc2N2CCC1CC2 [Example 492] | A (EC1.5<1 μM) | ≥ 150% |  |  | 
O=C(Nc1cnccn1)N1c2nc(-c3cccc(Cl)c3)cc(O)c2N2CC[C@H]1C2 [Example 443] | B (EC1.5 1-25 μM) | ≥ 150% |  |  | 

Structure (SMILES) | Tryp AVG EC1.5 (μM) [1] | Emax (Trp peptide substrate) | Tryp AVG EC1.5 (μM) [2] | Emax (Trp mass spectrometry assay) | Tryp AVG EC1.5 (μM) [3]
O=C(Nc1ccccn1)N1c2nc(-c3cncc(Cl)c3)ccc2N2CCC[C@H]1C2 [Example 406] | A (EC1.5<1 μM) | ≥ 150% |  |  | 
O=C(Nc1cnccn1)N1c2nc(-c3ccnc(N4CCC(F)(F)C4)c3)ccc2N2CC[C@H]1C2 [Example 423] | A (EC1.5<1 μM) | ≥ 150% |  |  | 
NCc1cnnn1-c1cccc(NC(=O)N2c3nc(-c4cccc(C(F)(F)F)c4)ccc3N3CC[C@H]2C3)c1 [Example 640] |  |  | A (EC1.5<1 μM) | ≥ 150% | 
O=C(Nc1ccccn1)N1c2nc(-c3cccc(N4CC[C@@H](F)C4)c3)ccc2N2CC[C@H]1C2 [Example 279] | A (EC1.5<1 μM) | ≥ 150% |  |  | 
O=C(CCCC[C@@H]1SCC2NC(=O)NC21)NCCCCCC(=O)NCc1ccc(NC(=O)N2c3nc(-c4cccc(C(F)(F)F)c4)ccc3N3CCC[C@H]2C3)cc1 (stereo partly shown) [Example 430] | A (EC1.5<1 μM) | ≥ 150% |  |  | 
Cc1cc(OCC(O)CO)nc(NC(=O)N2c3nc(-c4cccc(F)c4)ccc3N3CC[C@H]2C3)n1 (stereo partly shown) [Example 64] |  |  |  | ≥ 150% | 
O=C(Nc1ccncn1)N1c2nc(-c3cccc(N4CCCC4)c3)ccc2N2CC[C@H]1C2 [Example 193] |  |  |  | ≥ 150% | B (EC1.5 1-25 μM)
O=C(Nc1ccncn1)N1c2nc(-c3cccc(Cl)c3)ccc2N2CCC1CC2 [Example 534] | B (EC1.5 1-25 μM) | ≥ 150% |  |  | 
Cc1c(-c2ccc3c(n2)N(C(=O)Nc2cccnc2)[C@H]2CCN3C2)cnn1C [Example 489] | B (EC1.5 1-25 μM) | ≥ 150% |  |  | 
O=C(Nc1cccc(-c2cnco2)c1)N1c2nc(-c3cccc(OC(F)(F)F)c3)ccc2N2CC[C@H]1C2 [Example 162] |  |  |  | ≥ 150% | A (EC1.5<1 μM)
Cc1ccc2ncccc2c1NC(=O)N1c2nc(-c3cccc(C(F)(F)F)c3)ccc2N2CC[C@H]1C2 [Example 84] |  |  |  | < 150% | 
O=C(Nc1cccc(-c2cnco2)c1)N1c2nc(-c3cncc(Cl)c3)ccc2N2CCC1CC2 [Example 575] | A (EC1.5<1 μM) | ≥ 150% |  |  | 
O=C(Nc1ccncn1)N1c2nc(-c3cccc(Cl)c3)ccc2N2CC[C@@H]1C2 [Example 234] | B (EC1.5 1-25 μM) | ≥ 150% |  |  | 
O=C(Nc1ccncc1F)N1c2nc(-c3cccc(N4CCCC4)c3)ccc2N2CC[C@H]1C2 [Example 150] |  |  |  | ≥ 150% | A (EC1.5<1 μM)
O=C(Nc1cnccn1)N1c2nc(-c3cncc(F)c3)ccc2N2CC[C@H]1C2 [Example 400] | B (EC1.5 1-25 μM) | ≥ 150% |  |  | 
Cc1nc(NC(=O)N2c3nc(N4CCCC(C(F)(F)F)C4)ccc3N3CC[C@H]2C3)sc1C (stereo partly shown) [Example 215] |  |  |  | ≥ 150% | B (EC1.5 1-25 μM)
